Experimental data reported in PMC6377810 (ACS chemical biology, 2018).
Where two headings read alike, the source gives them in different places. Each block holds one compound with its values, some of them ahead of it.

Tests used:
[1] = target: T1, Hsc70 (Homo sapiens, UniProt P11142); assay: malachite green ATP turnover assay; assay type: biochemical
[2] = target: T1, Hsc70; assay: direct binding by quench of compound fluorescence
[3] = target: T1, Hsc70; assay: direct binding by quench of compound fluorescence; remark: listed apart in the source
[4] = target: Hsp72 (Homo sapiens) (UniProt P0DMV8); conditions: cited from earlier work
Hsp72 (Homo sapiens), sequence (P0DMV8 2-641): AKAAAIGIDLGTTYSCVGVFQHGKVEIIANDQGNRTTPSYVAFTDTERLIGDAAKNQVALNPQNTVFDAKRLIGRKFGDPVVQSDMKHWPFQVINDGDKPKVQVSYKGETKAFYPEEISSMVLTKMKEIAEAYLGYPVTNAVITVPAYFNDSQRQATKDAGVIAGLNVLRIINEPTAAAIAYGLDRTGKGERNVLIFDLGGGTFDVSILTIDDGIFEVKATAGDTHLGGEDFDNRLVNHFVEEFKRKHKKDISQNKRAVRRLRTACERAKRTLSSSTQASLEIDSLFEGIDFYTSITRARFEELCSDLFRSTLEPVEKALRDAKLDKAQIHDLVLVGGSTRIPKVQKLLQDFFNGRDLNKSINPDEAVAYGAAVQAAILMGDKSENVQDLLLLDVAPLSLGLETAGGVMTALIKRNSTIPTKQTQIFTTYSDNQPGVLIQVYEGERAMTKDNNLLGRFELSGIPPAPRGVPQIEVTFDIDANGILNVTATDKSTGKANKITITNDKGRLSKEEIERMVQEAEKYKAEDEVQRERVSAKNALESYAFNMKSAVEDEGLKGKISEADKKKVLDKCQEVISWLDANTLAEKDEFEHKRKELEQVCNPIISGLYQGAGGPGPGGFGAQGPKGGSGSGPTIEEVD

[5] = target: Hsp72 (Homo sapiens) (UniProt P0DMV8); conditions: cited from earlier work; remark: listed apart in the source

T1 sequence (P11142 whole entry): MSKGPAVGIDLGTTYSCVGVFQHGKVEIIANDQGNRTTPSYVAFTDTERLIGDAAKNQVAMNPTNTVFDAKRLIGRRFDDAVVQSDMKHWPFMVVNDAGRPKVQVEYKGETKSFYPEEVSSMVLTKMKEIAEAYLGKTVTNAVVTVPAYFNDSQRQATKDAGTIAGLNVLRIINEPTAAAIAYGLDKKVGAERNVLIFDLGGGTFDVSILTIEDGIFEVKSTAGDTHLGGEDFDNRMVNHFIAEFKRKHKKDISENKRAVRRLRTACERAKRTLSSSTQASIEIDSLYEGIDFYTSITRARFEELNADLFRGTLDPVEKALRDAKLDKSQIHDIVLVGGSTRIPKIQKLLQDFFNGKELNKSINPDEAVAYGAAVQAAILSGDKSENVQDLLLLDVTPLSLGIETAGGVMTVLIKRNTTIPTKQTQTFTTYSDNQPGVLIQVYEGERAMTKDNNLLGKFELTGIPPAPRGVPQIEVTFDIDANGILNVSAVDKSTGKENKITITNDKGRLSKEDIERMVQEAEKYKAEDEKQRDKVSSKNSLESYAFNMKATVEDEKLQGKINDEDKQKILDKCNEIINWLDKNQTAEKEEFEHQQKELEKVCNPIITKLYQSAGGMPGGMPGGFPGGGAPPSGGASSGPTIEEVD
BAG1, sequence (Q99933 whole entry): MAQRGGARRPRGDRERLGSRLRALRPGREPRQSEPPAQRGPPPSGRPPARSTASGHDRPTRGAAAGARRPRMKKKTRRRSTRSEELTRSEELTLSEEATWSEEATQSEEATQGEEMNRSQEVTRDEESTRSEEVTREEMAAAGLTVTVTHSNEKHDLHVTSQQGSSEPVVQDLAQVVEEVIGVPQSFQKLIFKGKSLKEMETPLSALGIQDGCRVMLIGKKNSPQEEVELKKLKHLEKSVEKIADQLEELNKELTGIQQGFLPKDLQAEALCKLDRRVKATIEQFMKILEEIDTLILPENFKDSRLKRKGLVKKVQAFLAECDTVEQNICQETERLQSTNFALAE

Compound: Nc1ncnc2c1ncn2[C@@H]1O[C@H](COP(=O)(O)OP(=O)(O)OP(=O)(O)O)[C@@H](O)[C@H]1O [ATP]
- malachite green ATP turnover assay; partial proteolysis in the ATP-bound state [1]: ~ 2 pmol/µM Hsc70/min

- Kd [2]: ~3100 nM
Compound: CCn1c(=O)/c(=C2\Sc3cc(Cl)ccc3N2C)s/c1=C\c1scc[n+]1Cc1cccc(C(F)(F)F)c1 [JG-115, 2-((Z)-((E)-5-(6-chloro-3-methylbenzo[d]thiazol-2(3H)-ylidene)-3-ethyl-4-oxothiazolidin-2-ylidene)methyl)-3-(3-(trifluoromethyl)benzyl)thiazol-3-ium chloride]

- Kd [2]: ~2600 nM
Compound: CCn1c(=O)/c(=C2\Sc3cc(Cl)ccc3N2C)s/c1=C\c1scc[n+]1Cc1ccc(C(F)(F)F)cc1 [JG-118, 2-((Z)-((E)-5-(6-chloro-3-methylbenzo[d]thiazol-2(3H)-ylidene)-3-ethyl-4-oxothiazolidin-2-ylidene)methyl)-3-(4-(trifluoromethyl)benzyl)thiazol-3-ium chloride]

- Kd [3]: 1500 ± 300 nM
Compound: CCn1c(=O)/c(=C2\Sc3cc(Cl)ccc3N2C)s/c1=C\c1scc[n+]1Cc1ccccc1OC(F)F [JG-237, 2-((Z)-((E)-5-(6-chloro-3-methylbenzo[d]thiazol-2(3H)-ylidene)-3-ethyl-4-oxothiazolidin-2-ylidene)methyl)-3-(2-(difluoromethoxy)benzyl)thiazol-3-ium chloride]

Compound: BAG1 (from UniProt Q99933)
- Kd [4]: 36 nM
- Kd [5]: 8 nM
